The record followed here is ChEMBL document CHEMBL5131543, “Studying Lipophilicity Trends of Phosphorus Compounds by 31P-NMR Spectroscopy: A Powerful Tool for the Design of P-Containing Drugs” (J Med Chem, 2022).

Common to all, as to format: physicochemical
Data set [1] in a line: […]-water partition coefficient, logP of compound by shake flask method based 31P-NMR analysis. The conditions noted are these: octanol/water.
Data set [2] in a line: Basicity of hydrogen bond, pKHB of compound by IR spectroscopy.
Data set [3] can be described thus: Lipophilicity, logD of compound at pH 1.3 by shake flask method based 31P-NMR analysis. As to conditions: buffer.
Data set [4] can be described thus: Lipophilicity, logD of compound at pH 3 by shake flask method based 31P-NMR analysis. The conditions noted are these: buffer.
A short description of data set [5]: Octanol-water partition coefficient, logP of compound by shake flask method based 31P-NMR analysis.
Data set [6] is described as follows: Octanol-water partition coefficient, logP of compound at pH 1.3 by shake flask method based 31P-NMR analysis.
Data set [7] can be described thus: Lipophilicity, logD of compound at pH 7.4 by shake flask method based 31P-NMR analysis. As to conditions: buffer.

By logP is commonly meant the decadic logarithm of the partition coefficient of the neutral form, usually between octanol and water. Low readings indicate a more hydrophilic compound, high ones a more lipophilic compound. In data set [1], `CP(C)(C)=S` displayed a logP of -0.23. In data set [2], the pKHB stood at 1.533. The logD is the decadic logarithm of the distribution of all forms, ionised or not, between an organic phase and buffer at a given pH. With `O=P(O)(O)C(O)(c1cc(F)c(F)c(F)c1)P(=O)(O)O`, in data set [3], the logD was -0.69. On to `CCOP(=O)(OCC)SCC`, for which, in data set [1], the logP was 1.42. In data set [2], the pKHB stood at 2.377. `COP(=O)(OC)OC` [TRIMETHYL PHOSPHATE] showed a logP in data set [1] of -0.4. Take `CCCCCCCCCC(O)(P(=O)(O)O)P(=O)(O)O`: the logD in data set [3] is 1.72. As to `CCOP(=O)(OCC)Oc1ccccc1` [PHOSPHORIC ACID DIETHYL ESTER PHENYL ESTER], in data set [1], the logP came to 2.07. With `O=P(O)(O)C(O)(c1ccccc1F)P(=O)(O)O`, the figures for the logD in data set [3] and in data set [4] were -2.16 and -3.25, respectively. With `CP(C)(C)=O`, in data set [1], the logP is -1.6. The pKHB in data set [2] is on record as 3.444. For `CCCCCCC(O)(P(=O)(O)O)P(=O)(O)O`, the logD in data set [3] was -0.08.

`CCNP(=O)(OCC)OCC`: the lipophilicity (logP) in data set [1] came out at 0.54. `CCOP(=S)(OCC)c1ccccc1` had a logP in data set [5] of 3.66. In data set [1], `CCOP(=O)(OCC)Oc1ccc(OC)cc1` gave a logP of 2.14. Still for that read-out and setting: the result for `CCOP(=S)(OCC)SCC` reads 3.38. In data set [1], `OCCCP(=S)(CCCO)CCCO` had a logP of -1.2. `CCCCCCCC(O)(P(=O)(O)O)P(=O)(O)O` yielded a logD in data set [3] of 0.6. `CCOP(=S)(OCC)Oc1ccc([N+](=O)[O-])cc1` [PARATHION] came in with a logP in data set [1] of 3.08. With `CCOP(=O)(OCC)c1ccccc1`, the logP in data set [5] worked out at 1.1. On to `O=P(CCCO)(CCCO)CCCO`, for which the logP in data set [1] was -2.49.

Molecule `CP(C)(C)=[Se]` came in with a logP in data set [1] of -0.02. In addition, in data set [2], the pKHB is on record as 1.519. Regarding `OCCCP(=[Se])(CCCO)CCCO`, the lipophilicity (logP) in data set [1] was -0.9. For `O=P(O)(O)C(O)(c1ccccc1)P(=O)(O)O`, the logP in data set [6] is -1.87.

The molecule `CCOP(=S)(OCC)Oc1ccc(OC)cc1` yielded a logP in data set [1] of 3.37. As for `O=P(O)(O)C(O)(c1ccc(F)cc1)P(=O)(O)O`, the logD in data set [3] is -1.57. In turn, `CCOP(=S)(OCC)Oc1ccccc1` yielded a logP in data set [1] of 3.34.

In data set [3], `C[C@@H]1C[C@H]2[C@@H]3CCC4=CC(=O)C=C[C@]4(C)[C@@]3(F)[C@@H](O)C[C@]2(C)[C@@]1(O)C(=O)COP(=O)(O)O` [DEXAMETHASONE SODIUM PHOSPHATE] had a logD of 1.24.

On to `CC(C)OC(=O)OCOP(=O)(CO[C@H](C)Cn1cnc2c(N)ncnc21)OCOC(=O)OC(C)C` [TENOFOVIR DISOPROXIL], for which the logD in data set [3] and in data set [7] was 1.26 in each case. For `CCOP(=O)(OCC)Oc1ccc([N+](=O)[O-])cc1` [PARAOXON], the lipophilicity (logP) in data set [1] was found to be 2.11.

The molecule `CCOP(=O)(OCC)OCC` [TRIETHYL PHOSPHATE] gave a pKHB in data set [2] of 2.574.
